# In PubChem BioAssay AID256 (DTP/NCI, 2004):
# Values joined by “and” are separate entries in the source; they are usually repeats but may differ in a detail not shown here. Identical values can stand only once. Toxic doses and inconclusive results are not listed.
# System: CD2F1 mice, L1210 leukemia ip, survival T/C
# Test: NCI In Vivo Anticancer Drug Screen. Data for tumor model L1210 Leukemia (intraperitoneal) in CD2F1 (CDF1) mice
# Conditions: higher = longer survival
# How it was run: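 Compound-dosed mice with transplantable tumor versus matched vehicle controls; endpoint ratio T/C reported.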
# [1] = endpoint: mean survival time, dose: 100.0 mg/kg/injection, schedule: Q01DX001 (ip), vehicle: saline
# [2] = endpoint: mean survival time, dose: 200.0 mg/kg/injection, schedule: Q01DX001 (ip), vehicle: saline
# [3] = endpoint: mean survival time, dose: 100.0 mg/kg/injection, schedule: Q01DX001 (ip), vehicle: saline with Tween-80
# [4] = endpoint: mean survival time, dose: 200.0 mg/kg/injection, schedule: Q01DX001 (ip), vehicle: saline with Tween-80
# [5] = endpoint: mean survival time, dose: 400.0 mg/kg/injection, schedule: Q01DX001 (ip), vehicle: saline with Tween-80
# [6] = endpoint: mean survival time, dose: 100.0 mg/kg/injection, schedule: Q01DX009 (ip), vehicle: saline with Tween-80
# [7] = endpoint: mean survival time, dose: 100.0 mg/kg/injection, schedule: Q04DX003 (ip), vehicle: saline with Tween-80
# [8] = endpoint: mean survival time, dose: 200.0 mg/kg/injection, schedule: Q01DX009 (ip), vehicle: saline with Tween-80
# [9] = endpoint: mean survival time, dose: 200.0 mg/kg/injection, schedule: Q04DX003 (ip), vehicle: saline with Tween-80
# [10] = endpoint: mean survival time, dose: 400.0 mg/kg/injection, schedule: Q04DX003 (ip), vehicle: saline with Tween-80
structure (smiles),measurement,setting,value
CS(=O)(=O)OCCCNCCCOS(C)(=O)=O,T/C,"endpoint: mean survival time, dose: 6.3 mg/kg/injection, schedule: Q01DX009 (ip), vehicle: saline",123 % of control
same,T/C,"endpoint: mean survival time, dose: 6.3 mg/kg/injection, schedule: Q04DX003 (ip), vehicle: saline",119 % of control and 114 % of control
same,T/C,"endpoint: mean survival time, dose: 10.0 mg/kg/injection, schedule: Q03DX003 (ip), vehicle: saline",121 % of control
same,T/C,"endpoint: mean survival time, dose: 12.5 mg/kg/injection, schedule: Q01DX001 (ip), vehicle: saline",121 % of control and 120 % of control
same,T/C,"endpoint: mean survival time, dose: 12.5 mg/kg/injection, schedule: Q04DX003 (ip), vehicle: saline",119 % of control
same,T/C,"endpoint: mean survival time, dose: 20.0 mg/kg/injection, schedule: Q01DX007 (ip), vehicle: saline",162 % of control
same,T/C,"endpoint: mean survival time, dose: 20.0 mg/kg/injection, schedule: Q01DX009 (ip), vehicle: saline",164 % of control and 170 % of control
same,T/C,"endpoint: mean survival time, dose: 20.0 mg/kg/injection, schedule: Q04DX003 (ip), vehicle: saline",152 % of control
same,T/C,"endpoint: mean survival time, dose: 23.0 mg/kg/injection, schedule: Q01DX009 (ip), vehicle: saline",160 % of control
same,T/C,"endpoint: mean survival time, dose: 25.0 mg/kg/injection, schedule: Q01DX001 (ip), vehicle: saline",110 % of control
same,T/C,"endpoint: mean survival time, dose: 25.0 mg/kg/injection, schedule: Q01DX009 (ip), vehicle: saline",162 % of control [middle of 4 runs]
same,T/C,"endpoint: mean survival time, dose: 25.0 mg/kg/injection, schedule: Q04DX003 (ip), vehicle: saline",151 % of control and 155 % of control
same,T/C,"endpoint: mean survival time, dose: 39.0 mg/kg/injection, schedule: Q01DX009 (ip), vehicle: saline",171 % of control
same,T/C,"endpoint: mean survival time, dose: 39.0 mg/kg/injection, schedule: Q04DX003 (ip), vehicle: saline",152 % of control
same,T/C,"endpoint: mean survival time, dose: 40.0 mg/kg/injection, schedule: Q01DX007 (ip), vehicle: saline",167 % of control
same,T/C,"endpoint: mean survival time, dose: 40.0 mg/kg/injection, schedule: Q01DX009 (ip), vehicle: saline",171 % of control and 189 % of control and 206 % of control
same,T/C,"endpoint: mean survival time, dose: 40.0 mg/kg/injection, schedule: Q04DX003 (ip), vehicle: saline",152 % of control
same,T/C,"endpoint: mean survival time, dose: 50.0 mg/kg/injection, schedule: Q01DX001 (ip), vehicle: saline",150 % of control
same,T/C,"endpoint: mean survival time, dose: 50.0 mg/kg/injection, schedule: Q01DX009 (ip), vehicle: saline",219 % of control and 181 % of control and 239 % of control
same,T/C,"endpoint: mean survival time, dose: 50.0 mg/kg/injection, schedule: Q04DX003 (ip), vehicle: saline",177 % of control [middle of 4 runs]
same,T/C,"endpoint: mean survival time, dose: 65.0 mg/kg/injection, schedule: Q01DX001 (oral), vehicle: saline",106 % of control
same,T/C,"endpoint: mean survival time, dose: 65.0 mg/kg/injection, schedule: Q01DX009 (ip), vehicle: saline",168 % of control
same,T/C,"endpoint: mean survival time, dose: 65.0 mg/kg/injection, schedule: Q01DX009 (oral), vehicle: saline",90 % of control
same,T/C,"endpoint: mean survival time, dose: 65.0 mg/kg/injection, schedule: Q04DX003 (ip), vehicle: saline",179 % of control
same,T/C,[1],161 % of control and 172 % of control and 155 % of control
same,T/C,"endpoint: mean survival time, dose: 100.0 mg/kg/injection, schedule: Q01DX009 (ip), vehicle: saline",95 % of control and 121 % of control
same,T/C,"endpoint: mean survival time, dose: 100.0 mg/kg/injection, schedule: Q04DX003 (ip), vehicle: saline",261 % of control [middle of 5 runs]
same,T/C,"endpoint: mean survival time, dose: 108.0 mg/kg/injection, schedule: Q01DX001 (oral), vehicle: saline",121 % of control
same,T/C,"endpoint: mean survival time, dose: 108.0 mg/kg/injection, schedule: Q01DX009 (oral), vehicle: saline",86 % of control
same,T/C,"endpoint: mean survival time, dose: 108.0 mg/kg/injection, schedule: Q04DX003 (ip), vehicle: saline",205 % of control
same,T/C,"endpoint: mean survival time, dose: 108.0 mg/kg/injection, schedule: Q08DX002 (ip), vehicle: saline",150 % of control
same,T/C,"endpoint: mean survival time, dose: 180.0 mg/kg/injection, schedule: Q01DX001 (ip), vehicle: saline",150 % of control
same,T/C,"endpoint: mean survival time, dose: 180.0 mg/kg/injection, schedule: Q01DX001 (oral), vehicle: saline",119 % of control
same,T/C,[2],277 % of control and 288 % of control and 517 % of control
same,T/C,"endpoint: mean survival time, dose: 200.0 mg/kg/injection, schedule: Q04DX003 (ip), vehicle: saline",121 % of control and 123 % of control
Nc1nc(N)n2nnnc2c1[N+](=O)[O-],T/C,"endpoint: mean survival time, dose: 100.0 mg/kg/injection, schedule: Q01DX001 (ip), vehicle: carboxymethylcellulose (CMC)",108 % of control
CCCOS(=O)(=O)O,T/C,[1],106 % of control
same,T/C,[2],102 % of control
same,T/C,"endpoint: mean survival time, dose: 400.0 mg/kg/injection, schedule: Q01DX001 (ip), vehicle: saline",106 % of control
COc1ccc(C(=O)/C=C/c2ccc(O)cc2)cc1,T/C,"endpoint: mean survival time, dose: 37.5 mg/kg/injection, schedule: Q01DX009 (ip), vehicle: saline",98 % of control
same,T/C,"endpoint: mean survival time, dose: 75.0 mg/kg/injection, schedule: Q01DX009 (ip), vehicle: saline",102 % of control
same,T/C,"endpoint: mean survival time, dose: 150.0 mg/kg/injection, schedule: Q01DX009 (ip), vehicle: saline",98 % of control
COC(=O)NCCCCl,T/C,"endpoint: mean survival time, dose: 37.5 mg/kg/injection, schedule: Q01DX007 (ip), vehicle: saline",94 % of control
same,T/C,"endpoint: mean survival time, dose: 75.0 mg/kg/injection, schedule: Q01DX007 (ip), vehicle: saline",103 % of control
same,T/C,"endpoint: mean survival time, dose: 150.0 mg/kg/injection, schedule: Q01DX007 (ip), vehicle: saline",97 % of control
same,T/C,"endpoint: mean survival time, dose: 300.0 mg/kg/injection, schedule: Q01DX007 (ip), vehicle: saline",94 % of control
same,T/C,"endpoint: mean survival time, dose: 600.0 mg/kg/injection, schedule: Q01DX007 (ip), vehicle: saline",94 % of control
O=C(O)c1c(Cl)c(-c2c(Cl)c(C(=O)O)c(Cl)c([N+](=O)[O-])c2Cl)c(Cl)c([N+](=O)[O-])c1Cl,T/C,[3],93 % of control
same,T/C,[4],94 % of control
same,T/C,[5],89 % of control
O=C(NC(=S)Nc1cccc2c(O)cccc12)c1cccc(Br)c1,T/C,[3],88 % of control and 91 % of control
same,T/C,[6],86 % of control and 98 % of control
same,T/C,"endpoint: mean survival time, dose: 100.0 mg/kg/injection, schedule: Q04DX002 (ip), vehicle: saline with Tween-80",90 % of control and 91 % of control
same,T/C,[7],94 % of control
same,T/C,[4],88 % of control and 92 % of control
same,T/C,[8],103 % of control and 108 % of control
same,T/C,"endpoint: mean survival time, dose: 200.0 mg/kg/injection, schedule: Q04DX002 (ip), vehicle: saline with Tween-80",91 % of control and 94 % of control
same,T/C,[9],94 % of control
same,T/C,[5],88 % of control and 90 % of control
same,T/C,"endpoint: mean survival time, dose: 400.0 mg/kg/injection, schedule: Q01DX009 (ip), vehicle: saline with Tween-80",116 % of control and 108 % of control
same,T/C,"endpoint: mean survival time, dose: 400.0 mg/kg/injection, schedule: Q04DX002 (ip), vehicle: saline with Tween-80",90 % of control and 95 % of control
same,T/C,[10],94 % of control
NC(=O)C(CC(=O)OCc1ccccc1)NC(=O)OCc1ccccc1 (configuration not stated),T/C,"endpoint: mean survival time, dose: 100.0 mg/kg/injection, schedule: Q04DX003 (ip), vehicle: saline + alcohol",97 % of control
same,T/C,"endpoint: mean survival time, dose: 200.0 mg/kg/injection, schedule: Q04DX003 (ip), vehicle: saline + alcohol",97 % of control
same,T/C,"endpoint: mean survival time, dose: 400.0 mg/kg/injection, schedule: Q04DX003 (ip), vehicle: saline + alcohol",97 % of control
CN(C)c1ccc(/C=C/c2nc3ccccc3o2)cc1,T/C,"endpoint: mean survival time, dose: 100.0 mg/kg/injection, schedule: Q04DX003 (ip), vehicle: Klucel (hydroxypropylcellulose) (HPC)",96 % of control
same,T/C,"endpoint: mean survival time, dose: 200.0 mg/kg/injection, schedule: Q04DX003 (ip), vehicle: Klucel (hydroxypropylcellulose) (HPC)",100 % of control
same,T/C,"endpoint: mean survival time, dose: 400.0 mg/kg/injection, schedule: Q04DX003 (ip), vehicle: Klucel (hydroxypropylcellulose) (HPC)",102 % of control
Nc1ncnc2nc(-c3cccc(CNC(=O)c4ccccc4S(=O)(=O)F)c3)[nH]c12,T/C,[3],87 % of control
same,T/C,[5],87 % of control
CCCCC#CC(C)C,T/C,[7],98 % of control
same,T/C,[9],102 % of control
same,T/C,[10],102 % of control
CC1(C)Cc2ccccc2O1,T/C,[6],104 % of control
same,T/C,[8],91 % of control
N#C/C(=C\c1cc(Cl)cc(Cl)c1O)c1ccc([N+](=O)[O-])cc1,T/C,"endpoint: mean survival time, dose: 50.0 mg/kg/injection, schedule: Q01DX009 (ip), vehicle: saline with Tween-80",89 % of control
same,T/C,[6],95 % of control
same,T/C,[8],96 % of control
CC(=O)OCC1OC(OC(C)=O)C(On2nnc3c(-c4ccccc4)c(C)nn32)C(OC(C)=O)C1OC(C)=O (configuration not stated),T/C,"endpoint: median survival time, dose: 12.5 mg/kg/injection, schedule: Q01DX005 (ip), vehicle: Klucel (hydroxypropylcellulose) (HPC)",93 % of control
same,T/C,"endpoint: median survival time, dose: 25.0 mg/kg/injection, schedule: Q01DX005 (ip), vehicle: Klucel (hydroxypropylcellulose) (HPC)",95 % of control
same,T/C,"endpoint: median survival time, dose: 50.0 mg/kg/injection, schedule: Q01DX005 (ip), vehicle: Klucel (hydroxypropylcellulose) (HPC)",97 % of control
same,T/C,"endpoint: median survival time, dose: 100.0 mg/kg/injection, schedule: Q01DX005 (ip), vehicle: Klucel (hydroxypropylcellulose) (HPC)",95 % of control
